Laboratory results from US20250051277A1, “DELIVERY OF THERAPEUTIC ALKALOID COMPOUNDS” (Sensorium Therapeutics, Inc., priority 2021, published 2025).
Read-outs that look alike come from different tables or passages of the source.

How the values were obtained:
[1] = type: physicochemical; details: SGF with pepsin, pH 1.5, 37° C.; for Condition 1 Conversion (%): 0.5 mM; for Condition 1 Conversion (%), first value of pair x/y: first of two values; for Condition 1 Conversion (%), second value of pair x/y: second of two values
[2] = type: physicochemical; details: DI water, 25° C., 0.5 mM

Row | SMILES | Condition 1 Conversion (%) ([1]; time 1 min) | Condition 1 Conversion (%) ([1]; time 5 min) | Condition 1 Conversion (%) ([1]; time 30 min) | Condition 1 Conversion (%) ([1]; time 1 h) | Condition 1 Conversion (%) ([1]; time 4 h) | Condition 1 Conversion (%) ([1]; time 24 h) | Condition 2 Conversion (%) ([2]; time 1 min) | Condition 2 Conversion (%) ([2]; time 5 min) | Condition 2 Conversion (%) ([2]; time 30 min) | Condition 2 Conversion (%) ([2]; time 1 h) | Condition 2 Conversion (%) ([2]; time 4 h) | Condition 2 Conversion (%) ([2]; time 24 h) | further results
1 | COc1ccc([C@@]23CCC(=NOCc4cccnc4)C[C@@H]2N(C)CC3)cc1OC [Compound 209, (3aS)-3a-(3,4-dimethoxyphenyl)-1-methyl-N-(3-pyridylmethoxy)-2,3,4,5,7,7a-hexahydroindol-6-imine] | 0% | 0% | 0% | 0% | 0% | 0% | 0% | 0% | 0% | 0% | 0% | 0% | –
2 | COc1ccc([C@@]23CCC(=NOCCON=C4CC[C@@]5(c6ccc(OC)c(OC)c6)CCN(C)[C@H]5C4)C[C@@H]2N(C)CC3)cc1OC [Compound 210, (3aS,7aS)-N-[2-[[(3aS,7aS)-3a-(3,4-dimethoxyphenyl)-1-methyl-2,3,4,5,7,7a-hexahydroindol-6-ylidene]amino]oxyethoxy]-3a-(3,4-dimethoxyphenyl)-1-methyl-2,3,4,5,7,7a-hexahydroindol-6-imine] | 0% | 0% | 3.48% | 7.51% | 14.75% | 15.35% | 0% | 0% | 0% | 0% | 0% | 0% | –
3 | COc1ccc([C@]23CCN(C)[C@H]2CC2(CC3)OCC(C(=O)O)O2)cc1OC (stereo partly drawn) [Compound 214, (3aS,7aS)-3a-(3,4-dimethoxyphenyl)-1-methyloctahydrospiro[indole-6,2′-[1,3]dioxolane]-4′-carboxylic acid] | 0% | 0% | 0% | 0% | 0% | 0% | 0% | 0% | 0% | 0% | 0% | 0% | –
4 | COc1ccc([C@@]23CC/C(=N/OC(C)(C)OC)C[C@@H]2N(C)CC3)cc1OC [Compound 219, (Z,3aS,7aS)-3a-(3,4-dimethoxyphenyl)-N-(1-methoxy-1-methyl-ethoxy)-1-methyl-2,3,4,5,7,7a-hexahydroindol-6-imine] | – | – | – | – | – | – | 0% | 0% | 0% | 0% | 0% | 0% | Condition 1 Conversion (%), first value of pair x/y ([1]; time 1 min): 100%; Condition 1 Conversion (%), second value of pair x/y ([1]; time 1 min): 0%; Condition 1 Conversion (%), first value of pair x/y ([1]; time 5 min): 100%; Condition 1 Conversion (%), second value of pair x/y ([1]; time 5 min): 0%; Condition 1 Conversion (%), first value of pair x/y ([1]; time 30 min): 0%; Condition 1 Conversion (%), second value of pair x/y ([1]; time 30 min): 100%; Condition 1 Conversion (%), first value of pair x/y ([1]; time 1 h): 0%; Condition 1 Conversion (%), second value of pair x/y ([1]; time 1 h): 100%; Condition 1 Conversion (%), first value of pair x/y ([1]; time 4 h): 0%; Condition 1 Conversion (%), second value of pair x/y ([1]; time 4 h): 100%; Condition 1 Conversion (%), first value of pair x/y ([1]; time 24 h): 0%; Condition 1 Conversion (%), second value of pair x/y ([1]; time 24 h): 100%
5 | COc1ccc([C@@]23CCC(=NNC(=O)c4ccc(F)cc4)C[C@@H]2N(C)CC3)cc1OC [Compound 220, N-[[(3aS)-3a-(3,4-dimethoxyphenyl)-1-methyl-2,3,4,5,7,7a-hexahydroindol-6-ylidene]amino]-4-fluoro-benzamide] | 86.72% | 100% | 100% | 100% | 100% | 100% | 20.02% | 21.53% | 22.27% | 55.36% | 88.25% | 89.93% | –
6 | COc1ccc([C@@]23CCC(=NNc4ccc(Cl)cc4)C[C@@H]2N(C)CC3)cc1OC [Compound 221, N-[[(3aS,7aS)-3a-(3,4-dimethoxyphenyl)-1-methyl-2,3,4,5,7,7a-hexahydroindol-6-ylidene]amino]-4-chloro-aniline] | 0% | 0% | 2.9% | 3.4% | 17.5% | 95.1% | 0% | 0% | 0% | 0% | 0% | 0% | –
